In ChEMBL document CHEMBL5465560, “Selectivity Literature for EUbOPEN Chemogenomic Library” (2024) one finds % of inhibition, % of control and % of engagement data, which are given here for 9 compounds.

Experiment [1] addresses T1, Serine/threonine-protein kinase Nek2 (Homo sapiens) (UniProt P51955).
T1 sequence (whole entry): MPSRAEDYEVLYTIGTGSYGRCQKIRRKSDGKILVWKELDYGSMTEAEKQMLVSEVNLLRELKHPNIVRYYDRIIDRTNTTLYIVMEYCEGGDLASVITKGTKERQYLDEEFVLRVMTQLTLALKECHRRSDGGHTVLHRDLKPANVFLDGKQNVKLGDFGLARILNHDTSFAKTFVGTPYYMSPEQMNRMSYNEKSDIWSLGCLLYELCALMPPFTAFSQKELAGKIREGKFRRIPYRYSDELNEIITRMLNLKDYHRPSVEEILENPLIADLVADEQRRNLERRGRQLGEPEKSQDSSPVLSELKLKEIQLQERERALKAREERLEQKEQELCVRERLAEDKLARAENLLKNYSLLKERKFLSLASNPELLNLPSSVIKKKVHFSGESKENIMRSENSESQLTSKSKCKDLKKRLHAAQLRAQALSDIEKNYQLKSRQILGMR
The experiment in a line: Selectivity interaction (Upstate Kinase Profiler service (Millipore)) EUB0000056c NEK2. The conditions noted are these: at 1 µM.

In experiment [2] the target is T2, Protein kinase C epsilon type (Homo sapiens) (UniProt Q02156).
T2 sequence (whole entry): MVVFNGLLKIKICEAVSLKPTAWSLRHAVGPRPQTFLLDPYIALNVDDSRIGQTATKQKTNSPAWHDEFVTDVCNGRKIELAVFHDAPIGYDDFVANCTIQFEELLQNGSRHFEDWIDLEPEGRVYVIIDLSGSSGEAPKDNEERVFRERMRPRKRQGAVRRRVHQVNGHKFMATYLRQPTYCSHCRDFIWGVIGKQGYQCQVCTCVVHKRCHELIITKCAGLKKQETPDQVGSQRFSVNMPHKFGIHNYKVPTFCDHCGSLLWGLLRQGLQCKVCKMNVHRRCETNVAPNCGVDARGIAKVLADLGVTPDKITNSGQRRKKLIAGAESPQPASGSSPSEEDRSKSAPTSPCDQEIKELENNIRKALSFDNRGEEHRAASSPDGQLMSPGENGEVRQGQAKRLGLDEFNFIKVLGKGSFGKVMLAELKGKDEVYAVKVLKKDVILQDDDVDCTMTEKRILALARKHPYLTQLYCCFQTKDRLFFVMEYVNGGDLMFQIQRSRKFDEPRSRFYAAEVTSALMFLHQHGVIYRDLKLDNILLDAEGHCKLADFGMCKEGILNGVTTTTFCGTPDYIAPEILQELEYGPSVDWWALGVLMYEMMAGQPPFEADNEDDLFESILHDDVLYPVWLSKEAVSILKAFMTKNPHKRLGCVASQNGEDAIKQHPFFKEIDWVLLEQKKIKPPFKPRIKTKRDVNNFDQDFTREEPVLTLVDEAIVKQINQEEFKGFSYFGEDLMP
The conditions noted are these: at 10 µM.

Experiment [3] deals with Epithelial discoidin domain-containing receptor 1 (Homo sapiens) (UniProt Q08345). The experiment in a line: Selectivity interaction (KinomeScan (DiscoverX)) EUB0000655a DDR1. The conditions noted are these: at 10 µM.
Sequence of Epithelial discoidin domain-containing receptor 1 (Homo sapiens) (Q08345 whole entry, the tested form may be a part): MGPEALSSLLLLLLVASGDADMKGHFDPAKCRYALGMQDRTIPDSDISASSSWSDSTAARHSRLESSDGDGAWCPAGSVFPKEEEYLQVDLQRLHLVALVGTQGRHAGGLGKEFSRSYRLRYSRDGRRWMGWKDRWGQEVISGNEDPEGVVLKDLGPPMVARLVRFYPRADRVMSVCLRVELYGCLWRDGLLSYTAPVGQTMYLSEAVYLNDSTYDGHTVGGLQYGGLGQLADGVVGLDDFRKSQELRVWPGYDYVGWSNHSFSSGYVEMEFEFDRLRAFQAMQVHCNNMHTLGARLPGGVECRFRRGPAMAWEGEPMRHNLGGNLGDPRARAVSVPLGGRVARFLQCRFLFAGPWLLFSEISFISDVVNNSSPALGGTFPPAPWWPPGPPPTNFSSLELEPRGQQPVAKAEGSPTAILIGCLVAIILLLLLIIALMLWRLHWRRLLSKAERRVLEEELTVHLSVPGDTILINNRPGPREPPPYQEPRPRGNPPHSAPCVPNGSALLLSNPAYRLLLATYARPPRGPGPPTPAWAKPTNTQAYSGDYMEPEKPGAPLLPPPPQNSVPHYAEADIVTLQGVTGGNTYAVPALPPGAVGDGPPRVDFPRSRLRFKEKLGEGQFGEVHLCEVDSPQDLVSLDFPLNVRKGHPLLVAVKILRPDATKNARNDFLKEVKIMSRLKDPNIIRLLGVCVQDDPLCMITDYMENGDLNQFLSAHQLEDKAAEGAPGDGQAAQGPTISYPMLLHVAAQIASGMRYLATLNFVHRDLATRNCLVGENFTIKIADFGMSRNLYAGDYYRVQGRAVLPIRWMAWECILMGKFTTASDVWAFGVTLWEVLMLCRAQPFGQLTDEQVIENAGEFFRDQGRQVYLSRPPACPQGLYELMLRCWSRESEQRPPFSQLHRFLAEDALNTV
Experiment [4] has as its target Serine/threonine-protein kinase PLK2 (Homo sapiens, UniProt Q9NYY3). Kind of experiment: Selectivity interaction (KinomeScan (DiscoverX)) EUB0000695a PLK2. The conditions noted are these: at 100 nM.
For experiment [5], the target named is T3, Mitogen-activated protein kinase 13 (Homo sapiens) (UniProt O15264).
T3 sequence (whole entry): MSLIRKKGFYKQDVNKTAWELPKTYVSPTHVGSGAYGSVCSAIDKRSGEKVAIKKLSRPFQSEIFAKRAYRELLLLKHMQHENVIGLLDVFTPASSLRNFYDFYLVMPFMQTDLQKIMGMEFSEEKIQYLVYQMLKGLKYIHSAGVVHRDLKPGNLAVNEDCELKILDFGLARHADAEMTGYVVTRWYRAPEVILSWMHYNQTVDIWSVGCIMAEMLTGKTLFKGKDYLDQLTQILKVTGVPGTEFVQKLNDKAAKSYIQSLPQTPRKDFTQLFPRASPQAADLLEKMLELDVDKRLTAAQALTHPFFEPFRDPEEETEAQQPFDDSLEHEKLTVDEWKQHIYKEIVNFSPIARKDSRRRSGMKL
The experiment in a line: Selectivity interaction (Kinase panel (Z-LYTE Assay)) EUB0001632a MAPK13. The conditions noted are these: at 10 µM.

Experiment [6] concerns the target Mitogen-activated protein kinase kinase kinase 1 (Homo sapiens, UniProt Q13233). Kind of experiment: Selectivity interaction (ActivX KiNativ screen (kinase selectivity in THP-1 cell lysates)) EUB0000639a MAP3K1. Type of experiment: subcellular. The conditions noted are these: lysate.
In experiment [7] the target is MAP kinase-interacting serine/threonine-protein kinase 2 (Homo sapiens, UniProt Q9HBH9). The experiment in a line: Selectivity interaction (Kinase panel (Invitrogen)) EUB0000639a MKNK2. The conditions noted are these: at 200 nM.
Sequence of MAP kinase-interacting serine/threonine-protein kinase 2 (Q9HBH9 whole entry, looked up): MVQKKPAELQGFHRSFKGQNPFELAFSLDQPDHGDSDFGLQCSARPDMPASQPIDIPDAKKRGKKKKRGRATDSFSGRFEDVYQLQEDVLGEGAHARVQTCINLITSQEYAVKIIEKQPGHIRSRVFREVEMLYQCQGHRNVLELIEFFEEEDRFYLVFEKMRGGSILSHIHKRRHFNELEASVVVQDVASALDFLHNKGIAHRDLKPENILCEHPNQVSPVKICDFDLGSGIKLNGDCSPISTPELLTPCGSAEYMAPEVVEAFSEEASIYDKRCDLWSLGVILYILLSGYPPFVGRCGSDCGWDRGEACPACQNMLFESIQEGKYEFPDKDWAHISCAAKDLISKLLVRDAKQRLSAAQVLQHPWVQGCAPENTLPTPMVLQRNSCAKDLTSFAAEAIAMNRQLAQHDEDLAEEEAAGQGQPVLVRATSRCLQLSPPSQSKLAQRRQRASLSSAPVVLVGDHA
The target in experiment [8] is Receptor-type tyrosine-protein kinase FLT3 (Homo sapiens) (UniProt P36888). The experiment in a line: Selectivity interaction (Kinase panel (Invitrogen)) EUB0000639a FLT3. The conditions noted are these: at 200 nM.
Sequence of Receptor-type tyrosine-protein kinase FLT3 (Homo sapiens) (P36888 whole entry): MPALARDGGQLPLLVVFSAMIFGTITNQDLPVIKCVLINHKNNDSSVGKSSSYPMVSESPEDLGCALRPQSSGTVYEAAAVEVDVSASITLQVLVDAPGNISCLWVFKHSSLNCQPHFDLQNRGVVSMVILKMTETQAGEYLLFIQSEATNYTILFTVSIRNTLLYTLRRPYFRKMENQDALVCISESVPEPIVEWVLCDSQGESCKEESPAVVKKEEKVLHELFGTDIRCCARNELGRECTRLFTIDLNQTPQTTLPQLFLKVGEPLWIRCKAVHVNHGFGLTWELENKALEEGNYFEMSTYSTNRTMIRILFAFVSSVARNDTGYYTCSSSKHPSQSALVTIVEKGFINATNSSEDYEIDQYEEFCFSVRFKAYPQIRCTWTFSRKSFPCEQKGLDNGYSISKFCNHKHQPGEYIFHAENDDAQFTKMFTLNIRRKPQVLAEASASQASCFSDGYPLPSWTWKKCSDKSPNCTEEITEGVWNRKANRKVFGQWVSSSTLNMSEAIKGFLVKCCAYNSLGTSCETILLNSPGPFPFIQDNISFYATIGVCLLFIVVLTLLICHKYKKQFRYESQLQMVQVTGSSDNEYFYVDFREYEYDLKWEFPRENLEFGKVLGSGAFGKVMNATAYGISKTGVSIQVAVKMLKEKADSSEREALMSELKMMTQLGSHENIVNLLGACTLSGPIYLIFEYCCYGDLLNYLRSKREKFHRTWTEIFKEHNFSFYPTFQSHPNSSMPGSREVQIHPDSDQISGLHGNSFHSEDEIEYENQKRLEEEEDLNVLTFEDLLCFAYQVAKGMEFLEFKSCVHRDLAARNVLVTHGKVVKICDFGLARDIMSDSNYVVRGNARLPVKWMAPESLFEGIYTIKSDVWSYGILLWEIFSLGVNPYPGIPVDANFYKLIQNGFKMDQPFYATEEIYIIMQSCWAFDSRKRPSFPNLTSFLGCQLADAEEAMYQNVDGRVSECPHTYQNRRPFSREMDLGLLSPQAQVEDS
In experiment [9] the target is Serine/threonine-protein kinase N2 (Homo sapiens, UniProt Q16513). Kind of experiment: Selectivity interaction (Kinase panel (literature)) EUB0001199aCl PKN2. The conditions noted are these: at 1 µM.
Experiment [10] has as its target Activated CDC42 kinase 1 (Homo sapiens, UniProt Q07912). Kind of experiment: Selectivity interaction (Kinase panel (KiNativ target engagement assay in Jurkat cells)) EUB0001635a TNK2. Type of experiment: cell-based. The conditions noted are these: Selectivity number of off-targets 0.0, Selectivity number of targets 233.0, Source Knowledge https://www.sciencedirect.com/science/article/pii/S2451945619300674?via%3Dihub, at 1 µM.

The target in experiment [11] is Serine/threonine-protein kinase OSR1 (Homo sapiens) (UniProt O95747). Kind of experiment: Selectivity interaction (KinomeScan (DiscoverX)) EUB0000618a OXSR1. The conditions noted are these: at 10 µM.
Sequence of Serine/threonine-protein kinase OSR1 (Homo sapiens) (O95747 2-527 limits assumed): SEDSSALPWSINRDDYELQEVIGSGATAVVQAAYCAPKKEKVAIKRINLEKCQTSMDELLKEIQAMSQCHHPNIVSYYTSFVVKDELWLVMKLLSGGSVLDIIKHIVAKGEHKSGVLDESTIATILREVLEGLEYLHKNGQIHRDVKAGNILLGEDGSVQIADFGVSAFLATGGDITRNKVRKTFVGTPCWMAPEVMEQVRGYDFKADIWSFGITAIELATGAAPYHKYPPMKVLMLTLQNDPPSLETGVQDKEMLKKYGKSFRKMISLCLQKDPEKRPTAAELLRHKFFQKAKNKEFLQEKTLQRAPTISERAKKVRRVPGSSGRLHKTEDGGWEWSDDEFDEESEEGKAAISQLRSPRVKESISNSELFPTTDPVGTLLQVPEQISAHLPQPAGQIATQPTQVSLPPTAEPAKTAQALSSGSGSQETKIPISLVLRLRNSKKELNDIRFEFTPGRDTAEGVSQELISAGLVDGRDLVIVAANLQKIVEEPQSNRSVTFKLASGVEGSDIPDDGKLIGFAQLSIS

Sequence of Mitogen-activated protein kinase kinase kinase 1 (Q13233 whole entry): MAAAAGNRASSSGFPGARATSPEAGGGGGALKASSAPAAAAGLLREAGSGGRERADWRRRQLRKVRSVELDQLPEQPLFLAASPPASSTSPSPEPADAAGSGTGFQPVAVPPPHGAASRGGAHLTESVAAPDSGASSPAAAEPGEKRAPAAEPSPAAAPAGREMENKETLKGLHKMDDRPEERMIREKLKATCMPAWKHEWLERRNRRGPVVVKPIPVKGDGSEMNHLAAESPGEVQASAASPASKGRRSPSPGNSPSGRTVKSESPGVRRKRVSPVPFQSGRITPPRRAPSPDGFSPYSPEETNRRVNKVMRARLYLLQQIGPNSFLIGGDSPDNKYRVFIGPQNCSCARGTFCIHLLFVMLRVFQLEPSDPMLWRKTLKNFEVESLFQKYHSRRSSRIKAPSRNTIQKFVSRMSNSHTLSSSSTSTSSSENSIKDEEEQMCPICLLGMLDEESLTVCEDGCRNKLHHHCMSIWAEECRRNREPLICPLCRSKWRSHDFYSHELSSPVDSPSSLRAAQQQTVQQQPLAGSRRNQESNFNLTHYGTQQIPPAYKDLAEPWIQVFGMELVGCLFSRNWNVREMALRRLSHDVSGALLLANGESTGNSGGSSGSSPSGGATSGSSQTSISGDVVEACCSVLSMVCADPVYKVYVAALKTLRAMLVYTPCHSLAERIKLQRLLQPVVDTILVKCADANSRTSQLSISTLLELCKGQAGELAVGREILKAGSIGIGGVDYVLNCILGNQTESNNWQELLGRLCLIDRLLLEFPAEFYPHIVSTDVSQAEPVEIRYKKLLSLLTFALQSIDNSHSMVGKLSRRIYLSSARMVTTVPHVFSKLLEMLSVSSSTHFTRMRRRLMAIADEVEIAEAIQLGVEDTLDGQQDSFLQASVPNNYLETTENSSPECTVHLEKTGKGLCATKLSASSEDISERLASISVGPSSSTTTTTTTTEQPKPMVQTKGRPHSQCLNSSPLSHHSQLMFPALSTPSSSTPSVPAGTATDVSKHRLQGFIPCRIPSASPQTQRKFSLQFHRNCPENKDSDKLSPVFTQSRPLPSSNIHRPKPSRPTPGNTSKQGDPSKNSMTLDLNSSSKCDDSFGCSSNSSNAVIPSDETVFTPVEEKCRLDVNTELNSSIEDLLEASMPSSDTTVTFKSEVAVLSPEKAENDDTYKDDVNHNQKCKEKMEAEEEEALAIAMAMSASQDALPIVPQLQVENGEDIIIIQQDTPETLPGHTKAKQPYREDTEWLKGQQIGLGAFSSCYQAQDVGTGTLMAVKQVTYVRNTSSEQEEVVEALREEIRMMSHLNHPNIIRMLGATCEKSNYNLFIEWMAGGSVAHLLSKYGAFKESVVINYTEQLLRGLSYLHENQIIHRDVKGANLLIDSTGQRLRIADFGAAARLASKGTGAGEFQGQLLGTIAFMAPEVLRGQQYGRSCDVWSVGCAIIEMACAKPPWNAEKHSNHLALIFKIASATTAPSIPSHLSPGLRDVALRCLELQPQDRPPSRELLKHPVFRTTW
Sequence of Serine/threonine-protein kinase PLK2 (Q9NYY3 whole entry, looked up): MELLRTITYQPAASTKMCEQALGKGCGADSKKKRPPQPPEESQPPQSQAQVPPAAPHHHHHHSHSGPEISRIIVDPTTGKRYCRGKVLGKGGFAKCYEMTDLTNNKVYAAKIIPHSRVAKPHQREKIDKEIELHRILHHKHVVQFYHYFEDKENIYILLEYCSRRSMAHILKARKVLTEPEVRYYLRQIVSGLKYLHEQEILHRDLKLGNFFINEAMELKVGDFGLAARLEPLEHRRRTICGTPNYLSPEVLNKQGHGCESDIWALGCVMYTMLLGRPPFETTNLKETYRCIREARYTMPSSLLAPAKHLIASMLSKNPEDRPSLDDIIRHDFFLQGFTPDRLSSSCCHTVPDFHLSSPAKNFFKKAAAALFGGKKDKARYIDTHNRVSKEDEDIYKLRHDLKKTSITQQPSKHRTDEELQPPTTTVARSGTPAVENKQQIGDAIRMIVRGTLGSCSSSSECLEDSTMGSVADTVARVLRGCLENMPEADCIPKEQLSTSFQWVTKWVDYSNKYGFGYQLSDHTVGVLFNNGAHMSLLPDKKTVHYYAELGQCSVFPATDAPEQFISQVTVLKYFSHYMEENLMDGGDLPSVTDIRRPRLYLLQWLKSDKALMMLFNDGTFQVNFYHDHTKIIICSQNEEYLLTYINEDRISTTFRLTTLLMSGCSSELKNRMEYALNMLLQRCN

`Cc1ccc(-c2ccc3c(ccc4sc5c(c43)NC[C@@H](C)NC5=O)n2)cn1`: in experiment [1], the % of inhibition is -7%.

The compound `Cc1cc([C@@H](C)Nc2ccccc2C(=O)O)c2nc(N3CCOCC3)cc(=O)n2c1` [AZD-6482] returned a % of control in experiment [2] of 100%.

In experiment [3], `CN(C)CCOc1ccc(-c2nc(-c3ccncc3)c(-c3ccc4c(c3)CC/C4=N\O)[nH]2)cc1` had a % of control of 43%.

`Cc1cc(F)c(C(=O)Nc2cccc(-c3nncn3C(C)C)n2)cc1-n1cnc(C2CC2)c1`: the % of control in experiment [4] stood at 88%.

In turn, `Cn1cc(-n2cnc3c(NCc4nc5cc(Cl)c(Cl)cc5[nH]4)nc(N4CCOCC4)nc32)cn1` gave a % of control in experiment [5] of 3.12%.

Take `CC[C@@H]1[C@H](F)C(=O)N[C@@H]1COc1nccc2cc(C(N)=O)c(OC)cc12` [ZIMLOVISERTIB]: the % of inhibition in [6] (at 0.01 µM) is 9.7%; in experiment [6] (at 0.04 µM) it was -2.5%; in experiment [6] (at 0.2 µM), -19.5%; in experiment [6] (at 1 µM), -13.4%; in [6] (at 5 µM) it was 3.7%; in [7] it was 86%. Further, in experiment [8], the % of inhibition turned out to be 9.68%.

Take `CN1Cc2nccc(-c3cn(C)nc3-c3ccc(F)cc3)c2C1=O`: the % of inhibition in experiment [9] turned out to be 2%.

`C=CC(=O)Nc1ccc(C(=O)Nc2[nH]nc3c2CN(C(=O)N[C@H](CN(C)C)c2ccccc2)C3(C)C)cc1`: the % of engagement in experiment [10] is -3.6%.

The compound `O[C@H]1CC[C@H](Nc2ncc3nc(Nc4c(F)cc(F)cc4F)n([C@H]4CCOC4)c3n2)CC1` showed a % of control in experiment [11] of 100%.
